Reference: ChEMBL document CHEMBL1129222, “Anti-AIDS agents. 291. Anti-HIV activity of modified podophyllotoxin derivatives” (Bioorg Med Chem Lett, 1997)

Key:
[1] = tested on: H9; test: Evaluation for anti-HIV activity using T cell line (H9).; format: functional, cell-based; conditions: Homo sapiens
[2] = tested on: H9; test: Cytotoxicity against H9 cell line; format: functional, cell-based; conditions: Homo sapiens
[3] = Therapeutic index (IC50/EC50); format: cell-based; conditions: human, H9 cells; read-out: Therapeutic index
[4] = tested on: H9; test: The compound was evaluated for anti-HIV activity using T cell line (H9); No suppression; format: functional, cell-based, Homo sapiens
[5] = tested on: H9; test: The compound was evaluated for cytotoxicity against H9 cell line; Toxic; format: toxicity, cell-based, Homo sapiens
[6] = tested on: H9; test: The compound was evaluated for anti-HIV activity using T cell line (H9); conditions: Homo sapiens
[7] = tested on: H9; test: as above; conditions: Homo sapiens; remark: listed apart in the source

EC50 [1] [nM] | EC50 [4] | EC50 [6] [nM] | EC50 [7] [nM] | Structure (SMILES) | IC50 [2] [nM] | selectivity ratio [3] | IC50 [5]
– | Not Active | – | – | COc1cc([C@@H]2c3cc(O)c(O)cc3[C@H](O)[C@H]3COC(=O)[C@H]23)cc(OC)c1O | 1850 | – | –
9 | – | – | – | Cc1cn([C@H]2C[C@H](N=[N+]=[N-])[C@@H](CO)O2)c(=O)[nH]c1=O [ZIDOVUDINE] | 500000 | – | –
– | No supperssion | – | – | CCN(CC)[C@@H]1c2cc3c(cc2[C@@H](c2cc(OC)c(O)c(OC)c2)[C@H]2C(=O)OC[C@@H]21)OCO3.Cl | > 100000 | – | –
160 | – | – | – | CCS[C@@H]1c2cc3c(cc2[C@@H](c2cc(OC)c(OC)c(OC)c2)[C@H]2C(=O)OC[C@@H]21)OCO3 | 320 | 2 | –
< 1 | – | – | – | CCOC(=O)c1ccc(N[C@@H]2c3cc(OC)c(OC)cc3[C@@H](c3cc(OC)c(O)c(OC)c3)[C@H]3C(=O)OC[C@@H]32)cc1 | 120 | > 120 | –
10000 | – | – | – | CCN(CC)CCN[C@@H]1c2cc3c(cc2[C@@H](c2cc(OC)c(O)c(OC)c2)[C@H]2C(=O)OC[C@@H]21)OCO3 | 8000 | 0.8 | –
1700 | – | – | – | COc1cc([C@@H]2c3cc4c(cc3[C@@H](O)[C@H]3COC(=O)[C@H]23)OCO4)cc(N)c1N | 6600 | 3.9 | –
– | Not Active | – | – | CCS[C@@H]1c2cc3c(cc2[C@@H](c2cc(OC)c(O)c(OC)c2)[C@H]2C(=O)OC[C@@H]21)OCO3 | 1900 | – | –
– | Not Active | – | – | COc1cc([C@@H]2c3cc(O)c(O)cc3[C@@H](O)[C@H]3COC(=O)[C@H]23)cc(OC)c1O | 45000 | – | –
– | – | 3000 | – | COc1cc([C@@H]2c3cc4c(cc3C(=O)[C@H]3COC(=O)[C@H]23)OCO4)cc(O)c1O | 9000 | 3 | –

More lines, now with the values behind:

Structure (SMILES) | EC50 [1] [nM] | EC50 [4] | EC50 [6] [nM] | EC50 [7] [nM] | IC50 [2] [nM] | selectivity ratio [3] | IC50 [5]
COc1cc([C@@H]2c3cc4c(cc3[C@@H](Nc3ccc(F)cc3)[C@H]3COC(=O)[C@H]23)OCO4)cc(OC)c1O | 100 | – | – | – | 1000 | 10 | –
COc1cc([C@@H]2c3cc4c(cc3[C@@H](Nc3ccc(F)cc3)[C@H]3COC(O)[C@H]23)OCO4)cc(OC)c1O (some centres not stated) | 450 | – | – | – | 1800 | 4 | –
COc1cc([C@@H]2c3cc4c(cc3[C@H](O)[C@H]3COC(=O)[C@H]23)OCO4)cc(OC)c1OC [PODOFILOX] | – | – | – | – | – | – | Toxic
COc1cc([C@@H]2c3cc(O)c(O)cc3[C@@H](Nc3ccc(F)cc3)[C@H]3COC(=O)[C@H]23)cc(OC)c1O | 7000 | – | – | – | 29000 | 4.1 | –
COc1cc([C@@H]2c3cc4c(cc3[C@@H](Nc3ccc([N+](=O)[O-])cc3)[C@H]3COC(=O)[C@H]23)OCO4)cc(OC)c1O | < 1.28 | – | – | – | 70 | 55.8 | –
COc1cc2c(cc1OC)[C@@H](Nc1ccc(C#N)cc1)[C@H]1COC(=O)[C@@H]1[C@@H]2c1cc(OC)c(O)c(OC)c1 | < 1 | – | – | – | 141 | > 141 | –
COc1cc([C@@H]2c3cc4c(cc3[C@@H](Sc3ccc(O)cc3)[C@H]3COC(=O)[C@H]23)OCO4)cc(OC)c1O | 800 | – | – | – | 1700 | 2.1 | –
COc1cc([C@@H]2c3cc4c(cc3[C@@H](Nc3ccc(F)cc3)[C@H]3COC(=O)[C@H]23)OCO4)cc(OC)c1OC | 450 | – | – | – | 1500 | 3.3 | –
COc1cc2c(cc1OC)[C@@H](Nc1ccc(F)cc1)[C@H]1COC(=O)[C@@H]1[C@@H]2c1cc(OC)c(OC)c(OC)c1 | 2200 | – | – | – | 9700 | 4.4 | –
COc1cc([C@@H]2c3cc4c(cc3[C@@H](Oc3ccc(F)cc3)[C@H]3COC(=O)[C@H]23)OCO4)cc(OC)c1O | 450 | – | – | – | 800 | 1.8 | –
COc1cc([C@@H]2c3cc4c(cc3[C@@H](Nc3ccc(F)cc3)[C@H]3COC[C@H]23)OCO4)cc(OC)c1O | 120 | – | – | – | 1500 | 12.5 | –
COc1cc2c(cc1OC)[C@@H](Nc1ccc([N+](=O)[O-])cc1)[C@H]1COC(=O)[C@@H]1[C@@H]2c1cc(OC)c(O)c(OC)c1 | – | – | – | < 1 | 158 | > 158 | –
COc1cc2c(cc1OC)[C@@H](Nc1ccc(F)cc1)[C@H]1COC(=O)[C@@H]1[C@@H]2c1cc(OC)c(O)c(OC)c1 | < 1 | – | – | – | 166 | > 166 | –
COc1cc([C@@H]2c3cc4c(cc3C(=O)[C@H]3COC(=O)[C@H]23)OCO4)cc(OC)c1O | 800 | – | – | – | 1700 | 2.1 | –
COc1cc([C@@H]2c3cc4c(cc3[C@@H](O)[C@H]3COC(=O)[C@H]23)OCO4)cc(OC)c1O [4'-DEMETHYLEPIPODOPHYLLOTOXIN] | – | Not Active | – | – | 70 | – | –
